Test system: C. albicans conditional mutants (SEC14 gene under tetracycline repressible promoter)
Assay: Murine model of systemic infection with C. albicans conditional mutants, kidney burdens
Type: in vivo, BALB/c mice
Details: +DOX group (2 mg/ml in 5% sucrose drinking water), at the start of the study and at day 28; 1×10^6 CFU/mouse i.v.
Protocol: To further validate the essential nature of the SEC14 gene, the conditional mutants of C. albicans strains (as described in Example 4, section 4.1), wherein the SEC14 gene is under the control of a tetracycline repressible promoter, may be tested to determine whether they are attenuated in an immuno-competent murine model of infection (Ghannoum, et al, 1995) as follows:
Initially the organisms were grown in the absence of DOX, since under these conditions they would express the SEC14 gene. These organisms were then used to inoculate two groups of 12 of mice. One group wss treated with DOX, in which expression of the SEC14 gene was repressed, and the second group of mice was treated with water (control) wherein the gene continued to be expressed. The mice used were single sex BALB/c mice, Harlan, 4 weeks old and weighing between 19-22 g.
Infective doses of C. albicans were injected into the tail vein. The inocula were from saline-washed fresh stationary phase cultures grown in NGY medium [0.1% neopeptone, 0.4% glucose, 0.1% yeast extract] for 18-24 h at 30° C. […]
Animals were fed food and water ad libitum throughout the course of experiment. […] Differences between the effects of C. albicans with the SEC14 gene active (−DOX) or repressed (+DOX) in vivo were monitored by mouse survival, kidney burdens of viable fungi, and changes in body weight relative to baseline. […]

Q: Which “Kidney counts (colony forming unit counts per gram of kidney tissue)” value does the source give for `C[C@H]1c2cccc(O)c2C(=O)C2=C(O)[C@]3(O)C(=O)C(C(N)=O)=C(O)[C@@H](N(C)C)[C@@H]3[C@@H](O)[C@@H]21` [doxycycline] here?
A: < 200 cfu/g

Reference: US20060211081A1, “Sec14 as an antifungal target” (priority 2002, published 2006)
